From US5385918A, “Aminomethylene-peptides as immunosuppressants” (Miles Inc., priority 1993, dated 1995)
Where two headings read alike, the source gives them in different places.

Columns and labels:
human T-cells = experiment: Suppression of Human T-Cell Proliferation Assay (PHA-stimulated, [3H]-thymidine incorporation); format: cell-based; conditions: for IC50: inhibition of [3H]-thymidine incorporation of PHA-stimulated purified human T-cells, 72 hours
Description: Inhibition of mitogen-induced T-cell proliferation can be used to profile immunosuppressive activity of test compounds. In the description of the assay which follows, mitogen-induced T-cell proliferation was used to test the inhibitory potencies of select compounds of the present invention.
In an assay similar to that described by Bradley in Mishell et al. (Eds.), 1980, Selected Methods in Cellular Immunology, pp 156-161, W. H. Freeman & Co., San Fransisco, Calif., T-cells were stimulated by incubation with phytohemagglutinin (PHA) which binds to cell surface molecules, including the T-cell receptor. This stimulation results in proliferation which can be measured by incorporation of [^3 H]-thymidine into cellular DNA.
Fresh LeukoPaks were obtained from the New York Blood Center, New York, N.Y. The cells, including erythrocytes and leukocytes, were diluted with Hank's Balanced Salt Solution (HBSS) (GIBCO, Grand Island, N.Y.) and layered over Lymphoprep (Nycomed Pharma AS, Oslo, Norway) in sterile 50 ml conical centrifuge tubes. Lymphocytes were isolated at the Hank's/Nycomed interface after centrifugation at 2000×g, 4° C. for 15 min. The lymphocytes were washed with Minimal Essential Medium (GIBCO) containing 2% fetal bovine serum (FBS) (Sigma Chemical Co., St. Louis, Mo.), 1% HEPES buffer (GIBCO) and 1% Penicillin-Stretomycin solution (GIBCO).
T-cells were further purified essentially by sheep erythrocyte (SRBC) rosetting as described by Morimoto et al., 1983, J. Immunol. 130:157. The isolated lymphocytes were adjusted to 2×10^7 cells/ml and 5 ml aliquots of the cell suspension were incubated for 10 minutes at room temperature with 5 ml of a 5% SRBC (Cappel, Organon Technika Corp., West Chester, Pa.) suspension. The cells were gently pelleted by centrifugation at 300 rpm for 10 minutes, followed by a 1 hour incubation at room temperature to allow rosette formation. The cells were gently resuspended,layered over Lymphoprep and centrifuged for 30 minutes at 500×g. The pellet, containing rosetted T-cells and SRBC was treated with ice cold buffered ammonium chloride (GIBCO) to lyse the erythrocytes. T-cells were washed twice with HBSS.
Purified T-cells were resuspended at 2×10^6 cells/ml in complete culture medium composed of RPMI-1640 (Whittaker Bioproducts, Walkerville, Md.) with 10% FBS (Sigma), 2 mM L-glutamine (GIBCO), 1% Penicillin-Streptomycin (GIBCO) and 15 mM HEPES (GIBCO). In 96-well plates (Becton Dickinson, Lincoln Park, N.J.), 0.1 ml aliquots of T-cell suspension were mixed with 0.05 ml of 40 μg/ml PHA-M (Sigma). The compounds of this invention were dissolved in dimethylsulfoxide at 10 mM and various dilutions in complete medium were added in duplicate wells (0.05 ml/well). The plates were incubated at 37° C. in a humidified atmosphere of 5% carbon dioxide and 95% air for 72 hours.
Proliferation was assessed by measurement of [^3 H]-thymidine incorporation. During the last 6 hours of incubation, the cells were pulse labelled with 1 μCi/well of [^3 H]-thymidine (New England Nuclear, Boston, Mass.). The cells were harvested onto glass fiber paper using a plate harvester and the radioactivity incorporated into cellular DNA corresponding to individual wells was measured by standard liquid scintillation counting methods. The mean counts per minute (CPM) of replicate wells was calculated and linear regression analysis of mean CPM versus compound concentration was used to determine the concentration of compound which would inhibit [^3 H]-thymidine incorporation of T-cells by 50% (IC50).

NF-AT (FGL-5 cells) = experiment: NF-AT Inhibition Assay Directed β-Galactosidase Expression; format: cell-based
Procedure: Inhibition of NF-AT activity is measured using FGL-5 cells. FGL-5 is a cloned line of stably transfected Jurkat T-cells that contain a construct in which three tandem copies of the NF-AT DNA binding site direct transcription of the lacZ gene, encoding β-galactosidase (Fiering et al., 1990, Genes & Development 4:1823). When these cells are stimulated with phorbol esters which activate protein kinase C and calcium ionophore to raise the intracellular calcium concentration, transcriptionally active NF-AT is produced. In T-cells, this normally leads to the expression of IL-2, T-cell growth factor. However, in FGL-5 cells NF-AT activation leads to the production of β-galactosidase which can be detected using an appropriate substrate.
This assay was performed essentially as described (Bierer et al., 1990, Proc. Natl. Acad. Sci. 87:923 1). FGL-5 cells were maintained in medium consisting of RPMI-1640 with 10% FBS, 2 mM L-glutamine, 1% Penicillin-Streptomycin and 15 mM HEPES buffer. The assays were done with exponentially growing cells whose density was not greater than 0.5 million cells/ml. The cells were resuspended to 3 million cells/ml in medium and 0.1 ml was added to wells of a 96-well plate.
The compounds of the present invention were dissolved in either ethanol or dimethylsulfoxide at 10 mM and 0.05 ml/well of various dilutions in medium were added to cells in duplicate wells. Treatment controls consisted of duplicate wells to which 0.05 ml/well of either medium, ethanol or dimethylsulfoxide was added. The ethanol and dimethyl sulfoxide were at the same concentration as was used for the compounds. Cells were incubated with compounds at room temperature for 10-15 minutes. Phorbol dibutyrate (Sigma) and Ionomycin (Calbiochem) were dissolved at 50 μg/ml and 2 mM, respectively and stored at -70° C.
FGL-5 cells were stimulated by diluting these reagents with medium to 200 ng/ml and 8 μM, respectively and adding of 0.05 ml/well. For unstimulated cell controls, 0.05 ml/well of medium was added to duplicate wells. The plates were incubated overnight (16-18 hours) at 37° C. in a humidified atmosphere of 5% CO2 and air.
β-galactosidase activity was measured as the fluorescence generated by the cleavage of 4-methyl umbelliferyl-β-D-galactoside (Sigma) at the β-galactoside bond. After overnight incubation, the cells were centrifuged at 500×g for 3 minutes in the 96-well plates and washed 3 times with PBS. The cells were then resuspended in 0.18 ml/well of reaction medium containing 100 mM sodium phosphate buffer, pH 7.0, 10 mM potassium chloride, 1 mM magnesium sulfate, 0.1% Triton X-100 (Pierce, Rockford, Ill.), and 0.5 mM 4-methylumbelliferyl-β-D-galactoside.
The fluorescence at 460 nm using 3 55 nm excitation was measured at intervals over 1-2 hours (during which fluorescence increased linearly with time) with a LS50 Luminescence Spectrometer (Perkin Elmer).
The percent inhibition by each concentration of the compounds was calculated as: [formula]
The values of the concentration of compounds required for 50% inhibition (IC50) were determined by linear regression analysis of the percent inhibition at various compound concentrations.

[1] = inhibition of β-galactosidase activity in FGL-5 cells stimulated with phorbol dibutyrate and ionomycin, read-out: IC50
[2] = stimulated FGL-5 cells, read-out: IC50 for NF-AT directed β-galactosidase expression

| SMILES | IC50 (human T-cells) [µM] | IC50 (NF-AT (FGL-5 cells); [1]) [µM] | inhibition of mitogen induced T-cell proliferation (human T-cells) | IC50 (NF-AT (FGL-5 cells); [2]) [µM] |
| --- | --- | --- | --- | --- |
| CC[C@H](C)[C@H](NC(=O)[C@@H]1CCCN1C[C@H](CC(C)C)NC(=O)OC(C)(C)C)C(=O)NCc1ccccc1 [Example 2, 1-[1-[2-(S)-[[(1,1-Dimethylethoxy)carbonyl]amino]-4-methylpentyl]-L-proline]-L-isoleucine Benzylamide] | 7 | 13 |  |  |
| CC[C@H](C)[C@H](NC(=O)[C@@H]1CCCCN1C[C@@H](NC(=O)OC(C)(C)C)[C@@H](C)CC)C(=O)NCc1ccccc1 [Example 3, 1-[1-[2-(S)-[[(1,1-Dimethylethoxy)carbonyl]amino]-3-(S)-methylpentyl]-L-homoproline]-L-isoleucine Benzylamide] | 0.7 | 1 |  |  |
| CC[C@H](C)[C@H](NC(=O)[C@@H]1CCCN1C[C@@H](NC(=O)OC(C)(C)C)[C@@H](C)CC)C(=O)NCc1ccccc1 [Example 6] | 6 | 8 |  |  |
| CCC(C)[C@@H](CN1CCC[C@H]1C(=O)N[C@H](C(=O)NCc1ccccc1)[C@@H](C)CC)NC(=O)[C@H](CC1CCCCC1)NC(=O)OC(C)(C)C (stereo partly drawn) [Example 7, 1-[1-[2-(S)-[[2-(S)-[[(1,1-Dimethylethoxy)carbonyl]amino]-1-oxo-3-cyclohexylpropyl]amino]-3-methylpentyl]-L-proline]-L-isoleucine Benzylamide] | 3 | > 15 |  |  |
| CCC(C)[C@@H](CN1CCC[C@H]1C(=O)N[C@H](C(=O)NCc1ccccc1)[C@@H](C)CC)NC(=O)[C@@H](N)CC1CCCCC1 (some centres unmarked) [Example 8] | 5 | > 15 |  |  |
| CC[C@H](C)[C@H](NC(=O)[C@@H]1CCCN1C[C@H](CC(C)C)NC(=O)[C@H](CC(N)=O)NC(=O)[C@H](Cc1ccccc1)NC(=O)OC(C)(C)C)C(=O)OCc1ccccc1 [Example 14, 1-[1-[2-(S)-[[1-[1-[(1,1-Dimethylethoxy)carbonyl]-L-phenylalanyl]-L-asparaginyl]amino]-4-methylpentyl]-L-proline]-L-isoleucine Phenylmethyl Ester] | < 6 |  | inhibited mitogen induced T-cell proliferation | ≤ 10 |
| CC[C@H](C)[C@H](NC(=O)[C@@H]1CCCN1C[C@H](CC1CCCCC1)NC(=O)OC(C)(C)C)C(=O)NCc1ccccc1 [Example 16, 1-[1-[2-(S)-[[(1,1-dimethylethoxy)carbonyl]amino]-3-cyclohexylpropyl]-L-proline]-L-isoleucine Benzylamide] | 6 | 19 |  |  |
| CC[C@H](C)[C@H](NC(=O)[C@@H]1CCCN1C[C@@H](NC(=O)OC(C)(C)C)C(C)C)C(=O)NCc1ccccc1 [Example 17, 1-[1-[2-(S)-[[(1,1-dimethylethoxy)carbonyl]amino]-3-methylbutyl]-L-proline] -L-isoleucine Benzylamide] | 14 | 29 | inhibited mitogen induced T-cell proliferation | ≤ 10 |
| CC[C@H](C)[C@H](NC(=O)[C@@H]1CCCCN1C[C@H](CC(C)C)NC(=O)OC(C)(C)C)C(=O)NCc1ccccc1 [Example 18, 1-[1-[2-(S)-[[(1,1-Dimethylethoxy)carbonyl]amino]-4-methylpentyl]-L-homoproline]-L-isoleucine Benzylamide] | 4 | > 15 |  |  |
| CC[C@H](C)[C@@H](CN1CCCC[C@H]1C(=O)N[C@H](C(=O)NCc1ccccc1)[C@@H](C)OCc1ccccc1)NC(=O)OC(C)(C)C [Example 19, 1-[1-[2-(S)-[[(1,1-Dimethylethoxy)carbonyl]amino]-3-(S)-methylpentyl]-L-homoproline]-L-threonene(O-Benzyl Ether)Benzylamide] | 17 | 9 |  |  |
